The target in the test is Tyrosine-protein kinase Lyn (Homo sapiens) (UniProt P07948). Put plainly: LYN B kinase inhibition, dose response, biochemical, LYN B isoform, Z'-LYTE, FRET readout (AID 1671319). The settings on record: Z'-LYTE FRET kinase assay, recombinant LYN B.
Chain of Tyrosine-protein kinase Lyn (Homo sapiens) (P07948 whole entry, looked up, canonical isoform): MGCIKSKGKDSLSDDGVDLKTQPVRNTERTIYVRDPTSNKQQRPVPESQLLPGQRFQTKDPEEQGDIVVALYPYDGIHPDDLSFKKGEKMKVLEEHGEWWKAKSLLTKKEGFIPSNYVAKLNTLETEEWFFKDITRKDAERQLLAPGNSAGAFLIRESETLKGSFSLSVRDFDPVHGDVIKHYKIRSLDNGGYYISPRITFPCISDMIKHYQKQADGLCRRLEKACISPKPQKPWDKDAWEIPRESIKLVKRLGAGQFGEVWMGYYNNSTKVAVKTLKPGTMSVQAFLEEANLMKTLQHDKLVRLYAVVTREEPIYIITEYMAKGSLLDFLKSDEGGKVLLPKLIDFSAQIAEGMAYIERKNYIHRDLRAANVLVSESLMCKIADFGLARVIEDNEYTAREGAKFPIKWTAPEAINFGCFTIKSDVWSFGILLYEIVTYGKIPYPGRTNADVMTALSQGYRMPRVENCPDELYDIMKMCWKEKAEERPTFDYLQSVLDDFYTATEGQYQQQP

One may read the IC50 as the concentration at which inhibition is half-maximal. Turning to `COc1cc2ncnc(Nc3cccc(Cl)c3)c2cc1OC`, the IC50 is 244 nM.

Source of the values: PubChem BioAssay AID1671319.
